What was measured:
Assay in all cases: relative viability (nuclei count vs DMSO), 5 days (fraction); higher = more cells survive
[1] = compound: O=C(NCCCNc1nc(Nc2cccc(NC(=O)N3CCCC3)c2)ncc1I)c1cccs1 [BX 795]
Summary of the method: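 Viability is treated-well nuclei as a fraction of vehicle-well nuclei, reported as the median across plates. Before counting, lung cancer cell lines were kept overnight at 37 °C in 1536-well plates, pinned with five √10-spaced library-drug doses on vehicle-anchored plates, and left 5 days without medium change, then fixed, permeabilised and Hoechst-stained in one step, imaged at 4× and counted by MetaXpress. A plate passed only if control CV was below 25% and at least one doubling occurred.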

[2] = compound: O=C(NCCCNc1nc(Nc2cccc(NC(=O)N3CCCC3)c2)ncc1I)c1cccs1 [BX 795] + C[C@]1(O)C[C@@H](c2nc(-c3ccc4ccc(-c5ccccc5)nc4c3)c3c(N)nccn32)C1 [Linsitinib] (partner 1 µM)
Summary of the method: (§1)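 Each reported value is a median over duplicate plates. It expresses relative viability: treated-well nuclei count divided by vehicle-well nuclei count. Lung cancer cell lines in 1536-well plates were dosed by pin tool a day after seeding, alone with one drug or with a fixed anchor-drug dose plus five library-drug doses (not always all listed) in √10 steps, and nuclei were counted after 5 days.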

[3] = compound: O=C(NCCCNc1nc(Nc2cccc(NC(=O)N3CCCC3)c2)ncc1I)c1cccs1 [BX 795] + NC(=O)Nc1cc(-c2cccc(F)c2)sc1C(=O)N[C@H]1CCCNC1 [AZD7762] (partner 0.2 µM)
Summary of the method: as §1

[4] = compound: O=C(NCCCNc1nc(Nc2cccc(NC(=O)N3CCCC3)c2)ncc1I)c1cccs1 [BX 795] + COc1cccc2cc(-c3nc([C@H]4CC[C@H](C(=O)O)CC4)n4ncnc(N)c34)[nH]c12 [OSI-027] (partner 0.5 µM)
Summary of the method: as §1

[5] = compound: O=C(NCCCNc1nc(Nc2cccc(NC(=O)N3CCCC3)c2)ncc1I)c1cccs1 [BX 795] + Cc1cc(Nc2cc(N3CCN(C)CC3)nc(Sc3ccc(NC(=O)C4CC4)cc3)n2)n[nH]1 [Tozasertib] (partner 0.1 µM)
Summary of the method: as §1

With NCI-H1792 the relative viability ([1]; 0.04 µM) was 0.93, the relative viability ([1]; 0.1265 µM) was 0.818 and the relative viability ([1]; 0.4 µM) was 1.12. It also gave a relative viability ([1]; 1.265 µM) of 0.867, a relative viability ([2]; first compound 0.04 µM) of 0.559 and a relative viability ([2]; first compound 0.1265 µM) of 0.673. It also gave a relative viability ([2]; first compound 0.4 µM) of 0.461, a relative viability ([2]; first compound 1.265 µM) of 0.424 and a relative viability ([3]; first compound 0.04 µM) of 0.616. For the same cell line, the relative viability ([3]; first compound 0.4 µM) was 0.696, the relative viability ([3]; first compound 1.265 µM) was 0.576 and the relative viability ([4]; first compound 0.04 µM) was 0.765. It also gave a relative viability ([4]; first compound 0.1265 µM) of 0.728, a relative viability ([4]; first compound 0.4 µM) of 0.702 and a relative viability ([4]; first compound 1.265 µM) of 0.53.
With NCI-H2009 the relative viability ([1]; 0.04 µM) was 0.981, the relative viability ([1]; 0.1265 µM) was 0.976 and the relative viability ([1]; 0.4 µM) was 0.996. For the same cell line, the relative viability ([1]; 1.265 µM) was 0.782, the relative viability ([2]; first compound 0.04 µM) was 1.27 and the relative viability ([2]; first compound 0.1265 µM) was 1.19. The relative viability ([2]; first compound 0.4 µM) was 1.19, the relative viability ([2]; first compound 1.265 µM) was 0.871 and the relative viability ([5]; first compound 0.04 µM) was 0.705. For the same cell line, the relative viability ([5]; first compound 0.1265 µM) was 0.714, the relative viability ([5]; first compound 0.4 µM) was 0.678 and the relative viability ([5]; first compound 1.265 µM) was 0.381. The relative viability ([4]; first compound 0.04 µM) was 0.612, the relative viability ([4]; first compound 0.1265 µM) was 0.595 and the relative viability ([4]; first compound 0.4 µM) was 0.604. For the same cell line, the relative viability ([4]; first compound 1.265 µM) was 0.386.
For NCI-H2023, the relative viability ([1]; 0.04 µM) was 0.906, the relative viability ([1]; 0.1265 µM) was 0.904 and the relative viability ([1]; 0.4 µM) was 0.571. It also gave a relative viability ([1]; 1.265 µM) of 0.6, a relative viability ([2]; first compound 0.04 µM) of 0.572 and a relative viability ([2]; first compound 0.1265 µM) of 0.71. For the same cell line, the relative viability ([2]; first compound 0.4 µM) was 0.445, the relative viability ([2]; first compound 1.265 µM) was 0.314 and the relative viability ([5]; first compound 0.04 µM) was 0.316. It also gave a relative viability ([5]; first compound 0.1265 µM) of 0.295, a relative viability ([5]; first compound 0.4 µM) of 0.215 and a relative viability ([5]; first compound 1.265 µM) of 0.139. For the same cell line, the relative viability ([4]; first compound 0.04 µM) was 0.272, the relative viability ([4]; first compound 0.1265 µM) was 0.398 and the relative viability ([4]; first compound 0.4 µM) was 0.173. It also gave a relative viability ([4]; first compound 1.265 µM) of 0.182.
With NCI-H2170 the relative viability ([1]; 0.04 µM) was 0.955, the relative viability ([1]; 0.1265 µM) was 0.951 and the relative viability ([1]; 0.4 µM) was 0.958. For the same cell line, the relative viability ([1]; 1.265 µM) was 0.942, the relative viability ([3]; first compound 0.04 µM) was 0.874 and the relative viability ([3]; first compound 0.1265 µM) was 1.09. For the same cell line, the relative viability ([3]; first compound 0.4 µM) was 0.812, the relative viability ([3]; first compound 1.265 µM) was 0.791 and the relative viability ([5]; first compound 0.04 µM) was 0.724. It also gave a relative viability ([5]; first compound 0.1265 µM) of 0.731, a relative viability ([5]; first compound 0.4 µM) of 0.74 and a relative viability ([5]; first compound 1.265 µM) of 0.712. It also gave a relative viability ([4]; first compound 0.04 µM) of 0.725, a relative viability ([4]; first compound 0.1265 µM) of 0.643 and a relative viability ([4]; first compound 0.4 µM) of 0.791. It also gave a relative viability ([4]; first compound 1.265 µM) of 0.674.
With NCI-H2228 the relative viability ([1]; 0.04 µM) was 1.07, the relative viability ([1]; 0.1265 µM) was 1.21 and the relative viability ([1]; 0.4 µM) was 1.04. The relative viability ([1]; 1.265 µM) was 0.871, the relative viability ([2]; first compound 0.04 µM) was 1.25 and the relative viability ([2]; first compound 0.1265 µM) was 0.643. The relative viability ([2]; first compound 0.4 µM) was 0.662, the relative viability ([2]; first compound 1.265 µM) was 0.474 and the relative viability ([5]; first compound 0.04 µM) was 0.283. The relative viability ([5]; first compound 0.1265 µM) was 0.247, the relative viability ([5]; first compound 0.4 µM) was 0.303 and the relative viability ([5]; first compound 1.265 µM) was 0.217. For the same cell line, the relative viability ([4]; first compound 0.04 µM) was 0.483, the relative viability ([4]; first compound 0.1265 µM) was 0.641 and the relative viability ([4]; first compound 0.4 µM) was 0.471. It also gave a relative viability ([4]; first compound 1.265 µM) of 0.265.
NCI-H2342 showed a relative viability ([1]; 0.04 µM) of 1.03, a relative viability ([1]; 0.1265 µM) of 0.939 and a relative viability ([1]; 0.4 µM) of 0.924. The relative viability ([1]; 1.265 µM) was 0.978, the relative viability ([3]; first compound 0.04 µM) was 0.591 and the relative viability ([3]; first compound 0.1265 µM) was 0.538. For the same cell line, the relative viability ([3]; first compound 0.4 µM) was 0.481, the relative viability ([3]; first compound 1.265 µM) was 0.399 and the relative viability ([5]; first compound 0.04 µM) was 0.579. For the same cell line, the relative viability ([5]; first compound 0.1265 µM) was 0.471, the relative viability ([5]; first compound 0.4 µM) was 0.507 and the relative viability ([5]; first compound 1.265 µM) was 0.46. It also gave a relative viability ([4]; first compound 0.04 µM) of 0.66, a relative viability ([4]; first compound 0.1265 µM) of 0.569 and a relative viability ([4]; first compound 0.4 µM) of 0.591. It also gave a relative viability ([4]; first compound 1.265 µM) of 0.637.
Cell Line SK-LU-1 has a relative viability ([1]; 0.04 µM) of 0.91, a relative viability ([1]; 0.1265 µM) of 1.18 and a relative viability ([1]; 0.4 µM) of 0.629. For the same cell line, the relative viability ([1]; 1.265 µM) was 0.836, the relative viability ([2]; first compound 0.04 µM) was 1.03 and the relative viability ([2]; first compound 0.1265 µM) was 1.13. For the same cell line, the relative viability ([2]; first compound 0.4 µM) was 0.722, the relative viability ([2]; first compound 1.265 µM) was 0.777 and the relative viability ([5]; first compound 0.04 µM) was 0.312. It also gave a relative viability ([5]; first compound 0.1265 µM) of 0.356, a relative viability ([5]; first compound 1.265 µM) of 0.211 and a relative viability ([4]; first compound 0.04 µM) of 0.327. For the same cell line, the relative viability ([4]; first compound 0.1265 µM) was 0.427 and the relative viability ([4]; first compound 1.265 µM) was 0.245.
Cell Line SK-MES-1 has a relative viability ([1]; 0.04 µM) of 1.06, a relative viability ([1]; 0.1265 µM) of 0.979 and a relative viability ([1]; 0.4 µM) of 0.932. For the same cell line, the relative viability ([1]; 1.265 µM) was 0.761, the relative viability ([2]; first compound 0.04 µM) was 1.11 and the relative viability ([2]; first compound 0.1265 µM) was 0.985. It also gave a relative viability ([2]; first compound 0.4 µM) of 0.992, a relative viability ([2]; first compound 1.265 µM) of 0.745 and a relative viability ([5]; first compound 0.04 µM) of 0.883. The relative viability ([5]; first compound 0.1265 µM) was 0.832, the relative viability ([5]; first compound 0.4 µM) was 0.905 and the relative viability ([5]; first compound 1.265 µM) was 0.223. The relative viability ([4]; first compound 0.04 µM) was 0.471, the relative viability ([4]; first compound 0.1265 µM) was 0.548 and the relative viability ([4]; first compound 0.4 µM) was 0.224. It also gave a relative viability ([4]; first compound 1.265 µM) of 0.299.
Cell Line SW 1573 has a relative viability ([1]; 0.04 µM) of 0.918, a relative viability ([1]; 0.1265 µM) of 0.984 and a relative viability ([1]; 0.4 µM) of 1.1. The relative viability ([1]; 1.265 µM) was 0.651, the relative viability ([2]; first compound 0.04 µM) was 0.962 and the relative viability ([2]; first compound 0.1265 µM) was 0.873. It also gave a relative viability ([2]; first compound 0.4 µM) of 1.02, a relative viability ([2]; first compound 1.265 µM) of 0.629 and a relative viability ([5]; first compound 0.04 µM) of 0.209. For the same cell line, the relative viability ([5]; first compound 0.1265 µM) was 0.185, the relative viability ([5]; first compound 0.4 µM) was 0.142 and the relative viability ([5]; first compound 1.265 µM) was 0.155. For the same cell line, the relative viability ([4]; first compound 0.04 µM) was 0.684, the relative viability ([4]; first compound 0.1265 µM) was 0.686 and the relative viability ([4]; first compound 0.4 µM) was 0.614. It also gave a relative viability ([4]; first compound 1.265 µM) of 0.322.
Work on UMC-11 yielded a relative viability ([1]; 0.04 µM) of 0.896, a relative viability ([1]; 0.1265 µM) of 0.995 and a relative viability ([1]; 0.4 µM) of 0.802. The relative viability ([1]; 1.265 µM) was 0.675, the relative viability ([2]; first compound 0.04 µM) was 0.751 and the relative viability ([2]; first compound 0.1265 µM) was 1.02. The relative viability ([2]; first compound 0.4 µM) was 0.95, the relative viability ([2]; first compound 1.265 µM) was 0.348 and the relative viability ([5]; first compound 0.04 µM) was 0.189. The relative viability ([5]; first compound 0.1265 µM) was 0.195, the relative viability ([5]; first compound 0.4 µM) was 0.185 and the relative viability ([5]; first compound 1.265 µM) was 0.22. The relative viability ([4]; first compound 0.04 µM) was 0.469, the relative viability ([4]; first compound 0.1265 µM) was 0.43 and the relative viability ([4]; first compound 0.4 µM) was 0.371. It also gave a relative viability ([4]; first compound 1.265 µM) of 0.27.

Reference: the supplement of paper PMC10307832
